“And” between values parts separate entries of the source, which are not always exact repeats. Identical values can stand only once. Like-named read-outs stand apart in the source and are kept apart here.
How the values were obtained:
HepG2 xenograft tumor [1] = settings: for Tumor growth inhibition rate (%): 42 d (calculated on day 41); for Body weight loss rate (%): day 41
FLT3(N841I) = biological target: T1, FLT3(N841I) (Homo sapiens, UniProt P36888, N841I); assay: KINOMEscan competition binding; settings: 10000 nM; lower = stronger binding; read-out: % Control
T1 construct: purchased Eurofins DiscoverX Corporation
Protocol: (§1) The profiling of MBP-11901 against a panel of 468 kinases was performed by DiscoverX using KINOMEscan technology, an active-site-dependent competition-binding assay (Eurofins DiscoverX Corporation, San Diego, CA, USA). Binding constants (Kd) were calculated by DiscoverX using KdELECT technology, a widely used assay for comparing selectivity across the kinome. The DiscoverX platform reports the thermodynamic Kd to facilitate direct comparison of inhibitor affinity across the kinome, independent of ATP concentration.

FLT3(D835Y) = biological target: T2, FLT3(D835Y) (Homo sapiens, UniProt P36888, D835Y); assay: KINOMEscan competition binding; settings: 10000 nM; lower = stronger binding; read-out: % Control
T2 construct: purchased Eurofins DiscoverX Corporation
Protocol: as §1

FLT3- autoinhibited = biological target: T3, FLT3- autoinhibited (Homo sapiens, UniProt P36888); assay: KINOMEscan competition binding; settings: 10000 nM; lower = stronger binding; read-out: % Control
T3 construct: purchased Eurofins DiscoverX Corporation
Protocol: as §1

FLT3(K663Q) = biological target: T4, FLT3(K663Q) (Homo sapiens, UniProt P36888, K663Q); assay: KINOMEscan competition binding; settings: 10000 nM; lower = stronger binding; read-out: % Control
T4 construct: purchased Eurofins DiscoverX Corporation
Protocol: as §1

FLT3(D835H) = biological target: T5, FLT3(D835H) (Homo sapiens, UniProt P36888, D835H); assay: KINOMEscan competition binding; settings: 10000 nM; lower = stronger binding; read-out: % Control
T5 construct: purchased Eurofins DiscoverX Corporation
Protocol: as §1

FLT3(D835V) = biological target: T6, FLT3(D835V) (Homo sapiens, UniProt P36888, D835V); assay: KINOMEscan competition binding; settings: 10000 nM; lower = stronger binding; read-out: % Control
T6 construct: purchased Eurofins DiscoverX Corporation
Protocol: as §1

[2] = Pharmacokinetics in mice (data not shown); type: in vivo
[3] = tested on: cleaved PARP and active caspase-3 in HepG2 cells; assay: Western blot of apoptosis markers; type: cell-based, human; settings: HepG2, time- and dose-dependent
Protocol: HepG2 cells were seeded in a 60 mm^2 culture dish at a density of 1.5 × 10^6 cells/dish and incubated for 24 h. Cells were treated with MBP-11901 for 24 h. Cells were harvested and protein extraction and Western blotting methods were performed as previously described. Membranes were incubated using the following diluted primary antibodies; PARP (1:1000 dilution), caspase-3 (1:1000 dilution), cleaved caspase-3 (1:1000 dilution), pFLT3 (1:500 dilution), Ras (1:1000 dilution), pc-Raf (1:1000 dilution), pMEK1/2 (1:1000 dilution), pERK1/2 (1:1000 dilution), pAKT (1:1000 dilution), pmTOR (1:1000 dilution), pVEGFR2 (1:1000 dilution), pPDGFR β (1:2000 dilution), and β-actin (1:1000 dilution) in Tris-HCl-based buffer containing 0.2% Tween-20 (T1027, Biosesang, Seongnam, Korea) (TBS-T; pH 7.5). Membranes were then incubated with horseradish-conjugated secondary antibodies (1:5000, Cell Signaling Technologies, Beverly, MA, USA) for 1 h at 25 °C. After washing with TBS-T, immunoreactive bands were visualized using the chemiluminescence western imaging system (Supernova-Q1800TM, Centronics, Daejeon, Korea). Band intensities were measured using ImageJ (Version 1.50i; US National Institutes of Health, Bethesda, MD, USA) and were normalized to β-actin.

HepG2 cells = assay: Flow cytometry analysis of cell death (sub-G1); type: cell-based, human; settings: 50 μM
Protocol: Approximately 1.5 × 10^6 HepG2 cells were suspended in […] PBS, and then […] 95% ethanol was added while vortexing. […] Incubation was continued at 37 °C for 30 min. Cellular DNA was then stained by applying […] propidium iodide (50 μg/mL) for 30 min at 25 °C. Stained cells were analyzed on a FACScan flow cytometer for relative DNA content based on increased red fluorescence.

HepG2 xenograft tumor [4] = assay: HepG2 subcutaneous xenograft, dose study (19 d); settings: for Toxic deaths/total: 19 d; for Body weight loss rate (%) / Tumor growth inhibition rate (%): day 19; for tumor weight per mouse: after 19 d, vehicle control 0.31 ± 0.089 g; for average tumor volume: end of 9 administrations, start 200 mm^3, saline approx. 1000 mm^3
[5] = tumors, compared with vehicle control

## NCC(N)C(=O)Nc1ccc(-c2nc3ccccc3s2)cc1 (stereo not shown) [MBP-11901]
HepG2 xenograft tumor [1]; 82 mg/kg oral 1T/2D, 42 d
  Toxic deaths/total: 0/6
HepG2 xenograft tumor [1]; 82 mg/kg oral 1T/2D
  Tumor growth inhibition rate (%): 99.82 ± 0.33%
  Body weight loss rate (%): 1.85 ± 3.70%
HepG2 xenograft tumor [1]; 82 mg/kg oral 1T/3D, 42 d
  Toxic deaths/total: 0/6
HepG2 xenograft tumor [1]; 82 mg/kg oral 1T/3D
  Tumor growth inhibition rate (%): 99.51 ± 0.81%
  Body weight loss rate (%): −0.43 ± 3.76 %
HepG2 xenograft tumor [1]; 82 mg/kg oral 1T/4D, 42 d
  Toxic deaths/total: 0/6
HepG2 xenograft tumor [1]; 82 mg/kg oral 1T/4D
  Tumor growth inhibition rate (%): 99.48 ± 0.60%
  Body weight loss rate (%): −4.29 ± 0.59 %
HepG2 xenograft tumor [1]; 42 d
  histological analysis of the liver and kidney: no apparent toxicity
HepG2 xenograft tumor [1]; all MBP-11901 groups, after 42 d
  animals in which tumors had disappeared, out of a total of 6: 3–4
HepG2 xenograft tumor [1]; serum, MBP-11901 1T/3D and 1T/4D groups
  GPT values: significantly outside the normal range
FLT3(N841I)
  remaining binding at 10 µM: 20%
FLT3(D835Y)
  remaining binding at 10 µM: 11%
FLT3- autoinhibited
  remaining binding at 10 µM: 19%
FLT3(K663Q)
  remaining binding at 10 µM: 7.5%
FLT3(D835H)
  remaining binding at 10 µM: 33%
FLT3(D835V)
  remaining binding at 10 µM: 1.6%
[2]
  bioavailability: significantly high
  half-life: long
[3]
  levels of cleaved PARP and active caspase-3: high levels
HepG2 cells; 8 h
  SubG1: 10.26%
HepG2 cells; 16 h
  SubG1: 17.39%
HepG2 cells; 24 h
  SubG1: 34.68%
HepG2 xenograft tumor [4]; 40 mg/kg oral once every 2 d
  Toxic deaths/total: 0/8
  Body weight loss rate (%): 2.00 ± 2.47 %
  Tumor growth inhibition rate (%): 61.41 ± 0.45%
HepG2 xenograft tumor [4]; 40 mg/kg
  tumor weight per mouse: 0.082 ± 0.063 g
  average tumor volume: approximately 350 mm^3
HepG2 xenograft tumor [4]; 60 mg/kg group
  animals in which the tumor completely disappeared: 3 out of 8
HepG2 xenograft tumor [4]; 60 mg/kg oral once every 2 d
  Toxic deaths/total: 0/8
  Body weight loss rate (%): 1.50 ± 1.97 %
  Tumor growth inhibition rate (%): 85.26 ± 0.36%
HepG2 xenograft tumor [4]; 60 mg/kg
  tumor weight per mouse: 0.025 ± 0.035 g
  average tumor volume: ~150 mm^3
HepG2 xenograft tumor [4]; 82 mg/kg group
  animals in which the tumor completely disappeared: 4 out of 8
HepG2 xenograft tumor [4]; 82 mg/kg oral once every 2 d
  Toxic deaths/total: 0/8
  Body weight loss rate (%): 1.78 ± 4.40 %
  Tumor growth inhibition rate (%): 92.54 ± 0.02% and 92.54 ± 0.0 %
HepG2 xenograft tumor [4]; 82 mg/kg
  tumor weight per mouse: 0.011 ± 0.009 g
  average tumor volume: ~70 mm^3
HepG2 xenograft tumor [4]; [5]
  apoptosis in tumors (cleaved caspase-3): high level of apoptosis
  proliferation of tumor cells (Ki-67): significant reduction
